In patent publication EP2753335B1, “AN ANTHRACYCLINE FOR THE TREATMENT OF SEPSIS” (Instituto de Medicina Molecular, priority 2011, dated 2013):
Counter-ions that a name gives are not always drawn.

What was measured:
[1] = tested on: C57BL/6 mice subjected to CLP; experiment: Cecal ligation and puncture (CLP) mouse model of severe sepsis, survival; assay type: in vivo; conditions: for protection against severe CLP (survival, in words): doxorubicin 0.5ug/g, daunorubicin 0.6µg/g body weight at the time of procedure and 24 hours later, Figure 6
Procedure: We choose the cecal ligation and puncture (CLP) mouse model to investigate the in vivo effects of epirubicin. In CLP, sepsis results from a polymicrobial infectious abdominal origin, leading to bacteraemia and a systemic inflammatory response^15.
Animal care and experimental procedures were conducted in accordance with Portuguese and US guidelines and regulations after approval by the respective local committees (Instituto de Medicina Molecular and Instituto Gulbenkian de Ciência). All mice used were 8-12 weeks old. Mice were bred and maintained under specific pathogen-free (SPF) conditions. C57BL/6 and C57BL/6 ATM^-/- were obtained from the Instituto Gulbenkian de Ciência (a kind gift from Dr. Vasco Barreto). C57BL/6 Nrf2^-/- mice were provided originally from the RIKEN BioResource Center (Koyadai, Tsukuba, Ibaraki, Japan)^31 and subsequently at the Institute Gulbenkian de Ciência. Cecal Ligation and Puncture was performed as described previously^15.

TNF [2] = experiment: In vitro chemical screen (Spectrum collection): TNF secretion by E. coli challenged THP-1 cells, DAS-ELISA; assay type: cell-based, human; conditions: THP-1 cells, 10µM compound for 1 hour, then PFA-fixed E. coli (MOI 20) for 24 hours
Procedure: (§1) We identified 45 leading candidates (Figure 1A and Table I) that inhibited both cytokines.
(§2) THP-1 human monocytes (American Tissue Culture Collection-ATCC TIB-202) were plated in 96 well plates at 10^6 cell/ml and incubated with each one of ∼2320 compounds included in the Spectrum collection (Microsource Discovery Systems, Gaylordsville, CT) at 10µM for 1 hour. Cells were then challenged with 4% PFA-fixed DH5α E.coli at a Multiplicity of Infection (MOI) of 20 bacterial cells per THP-1 cell for an additional 24 hours. The cell supernatants were collected and IL-1β and TNF cytokines quantified by DAS-ELISA, using Human IL-1β/IL-1F2 DuoSet® and Human TNF DuoSet® (R&D Systems ®), respectively, according to company's protocol.
(§3) We generated a working subset of The RNAi Consortium (TRC) shRNA lentiviral vector library ^33,33 that allows for the silencing of most of the genes that are either human kinases or phosphatases. This subset was composed of 1440 individually arrayed lentiviral shRNA vectors targeting ∼700 genes, after selecting the most efficient shRNAs (two on average) based on available silencing efficiency data from the Broad Institute of MIT and Harvard. THP-1 cells were plated in 96 well plates at 10^6 cell/ml and infected with shRNA-expressing lentivirus. 48 hrs later infected cells were selected with puromycin. After the 3 days of selection, plates were duplicated. One of the plates was used to measure the cell number using Alamar Blue® cell viability assay (Invitrogeia®), according to manufacturer's instructions. In the other plate, cells were stimulated with 4% PFA-fixed DH5α E.coli at a Multiplicity of Infection (MOI) of 20 bacterial cells per THP-1 cell. Twenty-four hours after stimulation, cell supernatants were collected and IL-1β and TNF cytokines quantified by DAS-ELISA. All data values from IL-1β and TNF secretion assays were normalized by dividing the amount of IL-1β and TNF in the conditioned media 24, 12, 8, 6, 4 or 2 hrs after E. coli stimulation by the number of cells in each well and then by the average concentration per cell of the plate. Results were logarithmic natural transformed. Scores were sorted in ascending order and graphed. We calculated 1.5 SDEVs above and below the mean to identify the genes that changed IL-1β and TNF secretion when silenced. The same approach was used to identify the compounds that changed IL-1β and TNF secretion. The selected genes were submitted to two or more rounds of phenotypic validation.

IL-1β [3] = experiment: In vitro chemical screen (Spectrum collection): IL-1β secretion by E. coli challenged THP-1 cells, DAS-ELISA; assay type: cell-based, human; conditions: THP-1 cells, 10µM compound for 1 hour, then PFA-fixed E. coli (MOI 20) for 24 hours
Procedure: as §1, §2, §3

IL-1β [4] = experiment: Concentration-response validation: IL-1β production by E. coli challenged THP-1 cells; assay type: cell-based, human
Procedure: (§4) • Figure 1 represents a primary screen to identify compounds in the Spectrum Collection library that inhibit the secretion of TNF and IL-1β. (A) it is a two-dimension plot of TNF and IL-1β production Z scores calculated upon THP-1 cells challenge with PFA-fixed E. coli for 24 hours in the presence of 10µM of each compound. The square defines the area in which compounds are considered primary hits, i.e., inhibiting both TNF and IL-1β, (B) represents the IL-1β and TNF production by E. coli challenged THP-1 cells (4 hours) after a pre-incubation (1 hour) with increasing concentrations of epirubicin. Results shown represent mean ± standard deviation from triplicate samples in one of 3 independent assays. (C) is a transcriptional profiling of THP-1 cell line response to epirubicin and unsupervised clustering of microarray expression profiles. […] Plots depict relative expression of IL-1β, TNF, CCL2, CXCL10, STAT1, STAT2, START4 and STAT5a as assessed by qRT-PCR in E. coli challenged THP-1 cells (4 hours) after a pre-incubation (1 hour) with 5µM epirubicin. […] Results shown represent mean values ± SEM from triplicate readings per animal. […] (D) relates to the expression of IL-1β, TNF, CCL2 and CXCL10 as assessed by qRT-PCR in THP-1 cells treated as in (C). […]

muHV-4 virus = experiment: Clearance of a secondary intranasal infection one week after administration; assay type: in vivo; conditions: compared with control mice, unpublished data
TNF [5] = experiment: Concentration-response validation: TNF production by E. coli challenged THP-1 cells; assay type: cell-based; conditions: Homo sapiens; E. coli challenged THP-1 cells (4 hours) after pre-incubation (1 hour) with increasing concentrations; read-out: half-inhibitory concentration (IC50) for TNF
Procedure: as §4

THP-1 cells = experiment: Autophagy induction in THP-1 cells, flow cytometry with Cyto-ID Green; assay type: cell-based, human; conditions: KU-55933 2µM plus epirubicin 1µM (1 hour), PFA-fixed E. coli 4 hours

Row | Compound | Z score TNFa (TNF [2]) | Z score IL1b (IL-1β [3]) | also measured
1 | COc1cccc2c1C(=O)c1c(O)c3c(c(O)c1C2=O)C[C@@](O)(C(C)=O)C[C@@H]3O[C@H]1C[C@H](N)[C@H](O)[C@H](C)O1 [Daunorubicin] | -3,007093086 | -0,995459172 | protection against severe CLP (survival, in words) [1]: comparable protection
2 | COc1cccc2c1C(=O)c1c(O)c3c(c(O)c1C2=O)C[C@@](O)(C(=O)CO)C[C@@H]3O[C@H]1C[C@H](N)[C@H](O)[C@H](C)O1 [Doxorubicin] | -4,071115136 | -2,412138965 | protection against severe CLP (survival, in words) [1]: comparable protection
3 | COc1cccc2c1C(=O)c1c(O)c3c(c(O)c1C2=O)C[C@@](O)(C(=O)CO)C[C@@H]3O[C@H]1C[C@H](N)[C@@H](O)[C@H](C)O1 [Epirubicin hydrochloride] | -4,474857631 | -1,212875226 | IC50 (IL-1β [4]; Homo sapiens, THP-1, read-out: half-inhibitory concentration (IC50) for IL-1β): 400 nM; increase of survival of mice subjected to CLP ([1]; i.p. in PBS at the time of CLP and 24hrs later, total 1.2µg/g body weight, no antibiotic, wildtype C57BL/6): ~80%; immune competence: clearance of secondary intranasal muHV-4 infection (muHV-4 virus): not immunocompromised; IC50 (TNF [5]): 500 nM
4 | O=c1cc(-c2cccc3c2Sc2ccccc2S3)oc(N2CCOCC2)c1 [KU-55933] | – | – | rescue of epirubicin-mediated IL-1β down-regulation (IL-1β [4]; KU-55933 2µM together with epirubicin 1µM, THP-1 cells, E. coli 4 hours): could be rescued; effect of ATM inhibitor pre-treatment on epirubicin-induced autophagy (THP-1 cells): eliminates this effect
5 | COc1cc([C@@H]2c3cc4c(cc3[C@@H](O[C@@H]3O[C@@H]5CO[C@@H](C)O[C@H]5[C@H](O)[C@H]3O)[C@H]3COC(=O)[C@H]23)OCO4)cc(OC)c1O [etoposide] | – | – | rescue of mortality induced by CLP ([1]; etoposide 2.0µg/g body weight, at the time of procedure and 24 hours later, wildtype C57BL/6): only partially rescues the mortality induced by CLP
6 | Colistin sulfate | -3,457325884 | -0,918619053 | –
7 | Gramicidin | -2,91855912 | -1,84556962 | –
8 | Mepartricin | -2,504992413 | -1,081865327 | –
9 | Pyrithione zinc | -2,951809549 | -1,872292546 | –
